Measured values: patent US20250230138A1, “COMPOUNDS HAVING A T-STRUCTURE FORMED BY AT LEAST FOUR CYCLES FOR USE IN THE TREATMENT OF CANCER AND OTHER INDICATIONS” (TheRas, Inc., priority 2022, published 2025)
Where two headings read alike, the source gives them in different places.

Assays:
[1] = target: Cys242 in human PIK3CA (157-299) (Homo sapiens (Human), UniProt P42336); assay: Covalent modification assay using MALDI-TOF MS; format: biochemical; details: 4 h reaction time point
How it was run: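 PIK3CA (157-299) at 3.33 μM or 1 μM in 20 mM HEPES, 150 mM NaCl, 2 mM MgCl2, pH 7.3 was incubated with compound (from 10 mM DMSO stocks) in the dark at room temperature for 15 min, 30 min, 2 h or 4 h. Linear-mode MALDI-TOF peak heights gave percent modification.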

pAKT in BT474 cells = assay: Cell-based pAKT HTRF assay in BT474 cells; details: BT474 cells, 4 hr incubation, read-out: pAKT inhibition IC50 in BT474 cells
How it was run: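 Compound titration: 3 μM downward in 3-fold steps, nine points, 4 hr on cells. Detection: lysis, then d2 plus Eu Cryptate antibody mix, room-temperature incubation of 4–24 h, and time-resolved fluorescence read at 615 nm.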

[2] = 3.33 μM protein target, 1:7.5 protein to compound ratio (compounds 1-852)
[3] = 1 μM protein target, 1:5 protein to compound ratio (compounds 853-1279)

Cys242 in human PIK3CA (157-299), sequence (P42336 157-299): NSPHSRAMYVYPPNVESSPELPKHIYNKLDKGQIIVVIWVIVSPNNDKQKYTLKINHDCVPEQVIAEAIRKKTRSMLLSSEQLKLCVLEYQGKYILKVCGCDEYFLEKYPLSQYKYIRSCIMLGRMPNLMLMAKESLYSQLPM

C=CC(=O)N1CCn2nc(-c3nc(-c4ccc5nn(C)cc5c4)c4ccsc4c3-c3c(F)cc(F)cc3OCCO)cc2[C@H]1C [Compound 650]
% of modification [1, 2]: C (25%≤percent of modification <50%)
IC50 (pAKT in BT474 cells; Compounds 10-999): < 100 nM

C=C(F)C(=O)N1CCn2nc(-c3nc(-c4ccc5c(c4)CCNC5=O)c4ccsc4c3-c3ccc(F)cc3OC(C)C)nc2C1 [Compound 256]
% of modification [1, 2]: A (percent of modification of PIK3CA protein ≥75%)
IC50 (pAKT in BT474 cells; Compounds 10-999): 100 to 1000 nM

C=CC(=O)N1CCn2nc(-c3nc(-c4ccc(OCCN(C)C)c(F)c4)c4ccsc4c3-c3c(F)cc(F)cc3OCCOC)cc2C1C (stereo not drawn) [Compound 1077]
% of modification [1, 3]: A (percent of modification of PIK3CA protein ≥75%)
IC50 (pAKT in BT474 cells; Compounds 1000-1279): < 100 nM

C=CC(=O)N1CCn2nc(-c3nc(-c4ccnc(N)c4)c4ccsc4c3-c3ccc(F)cc3OCCOC)nc2C1 [Compound 186]
% of modification [1, 2]: A (percent of modification of PIK3CA protein ≥75%)
IC50 (pAKT in BT474 cells; Compounds 10-999): < 100 nM

C=CC(=O)N1CC(n2cc(-c3nc(-c4ccc5c(c4)CCNC5)c4ccsc4c3-c3ccc(F)cc3F)cn2)C1 [Compound 108]
% of modification [1, 2]: A (percent of modification of PIK3CA protein ≥75%)
IC50 (pAKT in BT474 cells; Compounds 10-999): 100 to 1000 nM

C=CC(=O)N1CCn2nc(-c3nc(-c4ccc(=O)n(C)c4)c4ccsc4c3-c3ccc(F)cc3OCCOC)nc2C1 [Compound 205]
% of modification [1, 2]: A (percent of modification of PIK3CA protein ≥75%)
IC50 (pAKT in BT474 cells; Compounds 10-999): < 100 nM

C=CC(=O)N1CCc2ncc(-c3nc(-c4cnn(C)c4)c4ccsc4c3-c3c(F)cc(F)cc3OC(C)C)cc2C1 [Compound 324]
% of modification [1, 2]: A (percent of modification of PIK3CA protein ≥75%)
IC50 (pAKT in BT474 cells; Compounds 10-999): < 100 nM

C=CC(=O)N1CCc2nc(-c3nc(-c4cnc5c(c4)CNCC5)c4ccsc4c3-c3ccc(F)cc3OCCOC)sc2C1 [Compound 227]
% of modification [1, 2]: A (percent of modification of PIK3CA protein ≥75%)
IC50 (pAKT in BT474 cells; Compounds 10-999): < 100 nM

C=CC(=O)N1CCc2nc(-c3nc(-c4ccc5c(c4)CCN(C(C)C)C5)c4ccsc4c3-c3ccc(F)cc3OCCOC)sc2C1 [Compound 135]
% of modification [1, 2]: A (percent of modification of PIK3CA protein ≥75%)
IC50 (pAKT in BT474 cells; Compounds 10-999): < 100 nM

C=CC(=O)N1CCn2nc(-c3nc(-c4ccc5c(c4)CN(C)C5=O)c4ccsc4c3-c3c(F)cc(F)cc3OCCOC)cc2[C@H]1C [Compound 539]
% of modification [1, 2]: A (percent of modification of PIK3CA protein ≥75%)
IC50 (pAKT in BT474 cells; Compounds 10-999): < 100 nM

C=CC(=O)N1Cc2cc(-c3nc(-c4ccc5c(cnn5C)c4)c4ccsc4c3-c3c(F)cc(F)cc3OC[C@@H](C)O)nn2[C@@H](C)C1 [Compound 608]
% of modification [1, 2]: D (percent of modification <25%)
IC50 (pAKT in BT474 cells; Compounds 10-999): 100 to 1000 nM

C=CC(=O)N1CCn2nc(-c3nc(-c4cccc(C(=O)N5CC(N(C)C)C5)c4)c4ccsc4c3-c3c(F)cc(F)cc3OCCOC)cc2C1C (stereo not drawn) [Compound 1142]
% of modification [1, 3]: A (percent of modification of PIK3CA protein ≥75%)
IC50 (pAKT in BT474 cells; Compounds 1000-1279): < 100 nM

C=C(F)C(=O)N1CCn2nc(-c3nc(-c4cnn(C)c4)c4ccsc4c3-c3ccc(F)cc3OC(C)C)cc2C1 [Compound 295]
% of modification [1, 2]: B (50%<percent of modification <75%)
IC50 (pAKT in BT474 cells; Compounds 10-999): 100 to 1000 nM

C=CC(=O)N1CCn2nc(-c3nc(-c4ccc5ncn(C)c(=O)c5c4)c4ccsc4c3-c3c(F)cc(F)cc3OCCO)cc2C1C (stereo not drawn) [Compound 900]
% of modification [1, 3]: A (percent of modification of PIK3CA protein ≥75%)
IC50 (pAKT in BT474 cells; Compounds 10-999): < 100 nM

C=CC(=O)N1CC(n2cc(-c3nc(-c4ccc5c(c4)CCNC5)c4ccsc4c3-c3ccc(F)cc3C(F)F)cn2)C1 [Compound 120]
% of modification [1, 2]: A (percent of modification of PIK3CA protein ≥75%)
IC50 (pAKT in BT474 cells; Compounds 10-999): 100 to 1000 nM

C=CC(=O)N1CCc2cc(-c3nc(-c4ccc5ncn(C)c5c4)c4ccsc4c3-c3c(F)cc(F)cc3OC(C)C)nn2CC1 [Compound 573]
% of modification [1, 2]: A (percent of modification of PIK3CA protein ≥75%)
IC50 (pAKT in BT474 cells; Compounds 10-999): < 100 nM

C=CC(=O)N1Cc2cc(-c3nc(-c4ccc5c(c4)CN(C)C5=O)c4ccsc4c3-c3c(F)cc(F)cc3OC)nn2C(C)C1 (stereo not drawn) [Compound 911]
% of modification [1, 3]: B (50%<percent of modification <75%)
IC50 (pAKT in BT474 cells; Compounds 10-999): 100 to 1000 nM

C=CC(=O)N1CCn2nc(-c3nc(-c4ccc5nn(C)cc5c4)c4ccsc4c3-c3c(F)cc(F)cc3OCC(C)(C)O)cc2[C@H]1C [Compound 1129]
% of modification [1, 3]: A (percent of modification of PIK3CA protein ≥75%)
IC50 (pAKT in BT474 cells; Compounds 1000-1279): < 100 nM

C=CC(=O)N1CCn2nc(-c3nc(-c4cnc5c(c4)CN(C)CC5(F)F)c4ccsc4c3-c3c(F)cc(F)cc3OCCOC)cc2[C@H]1C [Compound 1152, 1-((R)-2-((S)-7-(2,4-difluoro-6-(2-methoxyethoxy)phenyl)-4-(8,8-difluoro-6-methyl-5,6,7,8-tetrahydro-1,6-naphthyridin-3-yl)thieno[3,2-c]pyridin-6-yl)-4-methyl-6,7-dihydropyrazolo[1,5-a]pyrazin-5(4H)-yl)prop-2-en-1-one]
% of modification [1, 3]: A (percent of modification of PIK3CA protein ≥75%)
IC50 (pAKT in BT474 cells; Homo sapiens, BT-474, Compounds 1000-1279): < 100 nM

C=CC(=O)N1CCn2nc(-c3nc(-c4cc5c(cc4OC)C(=O)NC5)c4ccsc4c3-c3c(F)cc(F)cc3OCCO)cc2C1C (stereo not drawn) [Compound 1072]
% of modification [1, 3]: A (percent of modification of PIK3CA protein ≥75%)
IC50 (pAKT in BT474 cells; Compounds 1000-1279): < 100 nM

C=C(F)C(=O)N1Cc2cc(-c3nc(-c4ccc5c(c4)CCN(C)C5)c4ccsc4c3-c3c(F)cc(F)cc3OC[C@@H](C)O)nn2C[C@H]1C [Compound 575]
% of modification [1, 2]: D (percent of modification <25%)
IC50 (pAKT in BT474 cells; Compounds 10-999): 100 to 1000 nM

C=CC(=O)N1CCn2nc(-c3nc(-c4cnn(C)c4)c4ccsc4c3-c3c(F)cc(F)cc3OCCO)cc2C1C (stereo not drawn) [Compound 538]
% of modification [1, 2]: A (percent of modification of PIK3CA protein ≥75%)
IC50 (pAKT in BT474 cells; Compounds 10-999): < 100 nM

C=CC(=O)N1CC(n2cc(-c3nc(-c4ccc5c(c4)CCNC5)c4ccsc4c3-c3ccc(F)cc3OC)ccc2=O)C1 [Compound 110, 5-[7-(4-fluoro-2-methoxy-phenyl)-4-(1,2,3,4-tetrahydroisoquinolin-6-yl)thieno[3,2-c]pyridin-6-yl]-1-(1-prop-2-enoylazetidin-3-yl)pyridin-2-one]
% of modification [1, 2]: A (percent of modification of PIK3CA protein ≥75%)
IC50 (pAKT in BT474 cells; Homo sapiens, BT-474, Compounds 10-999): 100 to 1000 nM

C=CC(=O)N1CCn2nc(-c3nc(-c4ccnc(N(C)C)c4)c4ccsc4c3-c3c(F)cc(F)cc3OCCO)cc2C1C (stereo not drawn) [Compound 959]
% of modification [1, 3]: A (percent of modification of PIK3CA protein ≥75%)
IC50 (pAKT in BT474 cells; Compounds 10-999): < 100 nM

C=CC(=O)N1CCn2nc(-c3nc(-c4ccc5c(c4)CN(C)C5=O)c4ccsc4c3-c3c(F)cc(F)cc3OC[C@@H](C)O)cc2[C@H]1C [Compound 763]
% of modification [1, 2]: A (percent of modification of PIK3CA protein ≥75%)
IC50 (pAKT in BT474 cells; Compounds 10-999): < 100 nM

C=CC(=O)N1CC(n2cc(-c3nc(-c4ccc5c(c4)CNC5=O)c4ccsc4c3-c3ccc(F)cc3OC)cn2)C1 [Compound 282]
% of modification [1, 2]: A (percent of modification of PIK3CA protein ≥75%)
IC50 (pAKT in BT474 cells; Compounds 10-999): < 100 nM

C=CC(=O)N1CCc2nc(-c3nc(-c4ccc5c(c4)CCNC5)c4ccsc4c3-c3c(F)cc(Cl)cc3OCCOC)sc2C1 [Compound 465]
% of modification [1, 2]: A (percent of modification of PIK3CA protein ≥75%)
IC50 (pAKT in BT474 cells; Compounds 10-999): 100 to 1000 nM

C=CC(=O)N1Cc2cc(-c3nc(-c4ccc(N(C)C)nc4)c4ccsc4c3-c3c(F)cc(F)cc3OCCOC)nn2CC1C (stereo not drawn) [Compound 855]
% of modification [1, 3]: A (percent of modification of PIK3CA protein ≥75%)
IC50 (pAKT in BT474 cells; Compounds 10-999): < 100 nM

C=CC(=O)N1CCn2nc(-c3nc(-c4ccc5c(c4)CN(C)C(=O)C5)c4ccsc4c3-c3c(F)cc(F)cc3OCCOC)cc2[C@@H]1C [Compound 975]
% of modification [1, 3]: D (percent of modification <25%)
IC50 (pAKT in BT474 cells; Compounds 10-999): < 100 nM

CC#CC(=O)N1CCn2nc(-c3nc(-c4ccc5c(cnn5C)c4)c4ccsc4c3-c3c(F)cc(F)cc3OCCOC)cc2[C@H]1C [Compound 1227]
% of modification [1, 3]: B (50%<percent of modification <75%)
IC50 (pAKT in BT474 cells; Compounds 1000-1279): 100 to 1000 nM

C=CC(=O)N1Cc2cc(-c3nc(-c4ccc5c(c4)CCN(C)C5)c4ccsc4c3-c3c(F)cc(F)cc3OC(C)C)nn2C(C)C1 (stereo not drawn) [Compound 555]
% of modification [1, 2]: D (percent of modification <25%)
IC50 (pAKT in BT474 cells; Compounds 10-999): 100 to 1000 nM

C=CC(=O)N1CCn2nc(-c3nc(-c4ccc(C(=O)N5CCN(C)CC5)cc4)c4ccsc4c3-c3c(F)cc(F)cc3OCCOC)cc2C1C (stereo not drawn) [Compound 1096]
% of modification [1, 3]: A (percent of modification of PIK3CA protein ≥75%)
IC50 (pAKT in BT474 cells; Compounds 1000-1279): < 100 nM

C=CC(=O)N1CCc2nc(-c3nc(-c4ccc5c(c4)CCNC5)c4ccoc4c3-c3ccc(F)cc3OCCOC)sc2C1 [Compound 417]
% of modification [1, 2]: A (percent of modification of PIK3CA protein ≥75%)
IC50 (pAKT in BT474 cells; Compounds 10-999): < 100 nM

COCCOc1cc(F)cc(F)c1-c1c(-c2cc3n(n2)CCN(C(=O)C=CCN(C)C)C3C)nc(-c2ccc3c(cnn3C)c2)c2ccsc12 (stereo not drawn) [Compound 1232]
% of modification [1, 3]: A (percent of modification of PIK3CA protein ≥75%)
IC50 (pAKT in BT474 cells; Compounds 1000-1279): < 100 nM

C=CC(=O)N1CCn2nc(-c3nc(-c4ccc5nncn5c4)c4ccsc4c3-c3c(F)cc(F)cc3OC[C@@H](C)O)cc2[C@H]1C [Compound 897]
% of modification [1, 3]: A (percent of modification of PIK3CA protein ≥75%)
IC50 (pAKT in BT474 cells; Compounds 10-999): < 100 nM

C=CC(=O)N1CC(n2cc(-c3nc(-c4ccc5c(c4)CCN(C)C5)c4ccsc4c3-c3ccc(F)cc3OCCOC)cn2)C1 [Compound 78]
% of modification [1, 2]: A (percent of modification of PIK3CA protein ≥75%)
IC50 (pAKT in BT474 cells; Compounds 10-999): < 100 nM
